Assay results reported in patent US20110212235A1, “ANTIMICROBIAL SALT SOLUTIONS FOR CHEESE PROCESSING APPLICATIONS” (priority 2006, published 2011).

Columns and labels:
Type in all cases: cell-based
[1] = tested on: green mold/white yeast mixture; test: “Mold” procedure, green mold/white yeast mixture; conditions: for Green Mold + Yeast count: after 4 hours in blue cheese brine, Table 20, inoculum 5.8 × 10^6 (est)
Procedure: (§1) In the present example, cultures of various microorganisms native to actual process brines used in cheese manufacture were obtained from a cheese plant. The cultures of yeast, mold, and coliforms were grown and used to test the efficacy of various antimicrobial additives in blue cheese brines. Organism cultures included four different types of yeast (three distinct while yeast cultures and a pink yeast), a black mold culture, a coliform culture, a culture of mixed green mold and yeast that were not separated, and a culture that was identified by the cheese plant as heterofermentative lactic acid bacteria, although no actual identification of the strain was carried out.
(§2) “Mold” Procedure: • 1. From refrigerated stock mold cultures, take 1 ml from black mold dilution bottle added to 99 ml of cold Butterfield's Phosphate Buffered Water (PBW) to obtain 10^5 cfu/ml. • 2. Take 1 ml from green mold/white yeast mixture dilution bottle added to 99 ml of cold Butterfield's Phosphate Buffered Water (PBW) to obtain 10^6 cfu/ml. • 3. Plate serial dilutions of the cultures to get the starting count of the inoculum on Dichloran-Rose Bengal-Chloramphenicol Agar (DRBC). • 4. Add 1 ml of the diluted mold culture to 100 ml of cold test solution (do separately for each of the two mold cultures). • 5. Determine the population at time 0 and 4 hours. Spread plate serial dilutions to DRBC agar. • 6. Incubate the test solutions at 10° C.+/−2° C. for the duration of the experiment. • 7. Incubate the plates at 20° C.+/−2° C. for 5 days+/−2 hours. • 8. Count representative colonies and multiply by the dilution factor. Note: For black mold, each test solution should contain ˜10^3 cfu/ml. For green mold/white yeast mixture, each test solution should contain ˜10^4 cfu/ml.
Screening tests identified octanoic acid as a promising antimicrobial additive for salt brines. Table 16 gives results of a challenge test run on actual blue cheese and mozzarella process brine samples sent from a cheese plant. The brines were treated with different concentrations of octanoic acid and then challenged with a yeast cocktail (which included the pink and 3 different white mold types), the green mold+yeast combination, and coliforms. […] The plate counts listed parenthetically as (est) were too numerous to count and were estimated.

White Yeast = test: Yeast challenge, white yeast
Procedure: (§3) “Yeast” Procedure: • 1. Inoculate a separate tube containing 10 ml of Brain Heart Infusion (BHI) broth for each wild type (Raised, Rough and Flat white yeast along with a single pink yeast). Incubate for 5 days at 26° C.+/−2° C. • 2. Assume growth to be 10^7 cfu/ml. Since 4 cultures are being used, combine 2.75 ml of each culture added to 99 ml of cold Butterfield's Phosphate Buffered Water (PBW) to obtain 10^6 cfu/ml of yeast cocktail. • 3. Plate serial dilutions of the culture to get the starting count of the inoculum on Dichloran-Rose Bengal-Chloramphenicol Agar (DRBC). • 4. Add 1 ml of the diluted cocktail to 100 ml of cold test solution. • 5. Determine the population at time 0 and 4 hours. Spread plate serial dilutions to DRBC agar. • 6. Incubate the test solutions at 10° C.+/−2° C. for the duration of the experiment. • 7. Incubate the plates at 20° C.+/−2° C. for 5 days+/−2 hours. • 8. Count representative colonies and multiply by the dilution factor. Note: Each test solution should contain ˜10^4 cfu/ml.
(§4) In order to determine if the effect of the additive was repeatable, more challenge tests were run on samples of process brine. […] In this test the solutions were challenged with two distinct yeast (a white and a pink) types and coliforms from the samples sent by the cheese plant.

[2] = tested on: wild type coliforms from cheese plant brine; test: Coliforms procedure in cheese brine or buffered solution; conditions: for Coliforms count: Table 21 (sodium octanoate experiment)
Procedure: as §1
Coliforms Procedure: • 1. Inoculate a separate tube containing 10 ml of Brain Heart Infusion (BHI) broth for each wild type coliforms 1 and 2. Incubate for 24+/−2 hours at 35° C.+/−2° C. • 2. Assume growth to be 10^9 cfu/ml. Since two cultures are being used, combine 5.5 ml of each culture added to 99 ml of cold Butterfield's Phosphate Buffered Water (PBW) to obtain 10^8 cfu/ml. • 3. Plate serial ten-fold dilutions of the culture to get the starting count of the inoculum on Violet Red Bile Agar (VRBA). • 4. Add 1 ml of the diluted cocktail to 100 ml of cold test solution. • 5. Determine the population at time 0 and 4 hours by plating serial dilutions to VRBA spread plates. • 6. Incubate the test solutions at 10° C.+/−2° C. for the duration of the experiment. • 7. Incubate the plates at 20° C.+/−2° C. for 72+/−2 hours. • 8. Count representative colonies and multiply by the dilution factor. Note: Each test solution should contain ˜10^8 cfu/ml.
(§5) The brines were treated with different concentrations of octanoic acid and then challenged with a yeast cocktail (which included the pink and 3 different white mold types), the green mold+yeast combination, and coliforms.

[3] = tested on: wild type coliforms from cheese plant brine; test: as above; conditions: after 4 hours in mozzarella cheese brine
Pink Yeast = test: Yeast challenge, pink yeast
Procedure: as §3, §4

[4] = tested on: yeast cocktail (Raised, Rough and Flat white yeast and a pink yeast); test: “Yeast” procedure, yeast cocktail
Source text: as §1, with “The cultures of yeast, mold, and coliforms were grown and used to test the efficacy of various antimicrobial additives in blue cheese brines.” left out
as §3, §5

[5] = tested on: heterofermentative lactic acid bacteria (not identified); test: “Lactic Bacteria” procedure in cheese brine; conditions: after 4 hours in blue cheese brine; Table 20; inoculum 1.2 × 10^7 (est)
Procedure: as §1
“Lactic Bacteria” Procedure: • 1. Inoculate a separate tube containing 10 ml of Brain Heart Infusion (BHI) broth for each wild type tactics 1 and 2. Incubate for 72+/−2 hours at 30° C.+/−2° C. • 2. Assume growth to be 10^9 cfu/ml. Since two cultures are being used, combine 5.5 ml of each culture added to 99 ml of cold Butterfield's Phosphate Buffered Water (PBW) to obtain 10^8 cfu/ml. • 3. Plate serial dilutions of the culture to get the starting count of the inoculum on Lactobacilli MRS Agar (MRSA). • 4. Add 1 ml of the diluted cocktail to 100 ml of cold test solution. • 5. Determine the population at time 0 and 4 hours. Plate serial dilutions using MRSA spread plates. • 6. Incubate the test solutions at 10° C.+/−2° C. for the duration of the experiment. • 7. Incubate the plates at 30° C.+/−2° C. for 72+/−2 hours. • 8. Count representative colonies and multiply by the dilution factor. Note: Each test solution should contain ˜10^8 cfu/ml.
In this experiment solutions were challenged with cultures of the black mold, the green mold/yeast combination, and the bacteria thought to be “lactic acid” bacteria. In this experiment, a brine control with no additive was neglected, but the data still indicate the strong effectiveness of the octanoic acid against yeast and mold.

black mold = test: “Mold” procedure, black mold; conditions: after 4 hours in blue cheese brine; Table 20; inoculum 2.5 × 10^4 (est)
Procedure: as §1, §2

[6] = tested on: Uncharacterized microorganisms cultured from raw ground beef; test: Total plate count challenge of 24% NaCl brine with ground beef organisms; conditions: after 4 hours in 24% NaCl brine at −5° C.
Procedure: Tests were run to determine the effectiveness of formulas against organisms other than L. monocytogenes. […] The test solutions were inoculated with the ground beef organism culture and incubated for 4 hours at −5° C. before plating.

[7] = after 4 hours at 10° C. in blue cheese brine, Table 16
[8] = after 4 hours in mozzarella cheese brine, Table 17
[9] = after 4 hours in blue cheese brine, Table 18
[10] = after 4 hours in blue cheese brine, Table 21 (sodium octanoate experiment)
[11] = after 4 hours in mozzarella cheese brine, Table 19
[12] = after 4 hours in blue cheese brine
[13] = Table 17, (est) = too numerous to count, estimated

CCCCCCCC(=O)O [125 ppm octanoic acid, octanoic acid]
Yeast + Mold count [1, 7]: 20 cfu/mL
Green Mold + Yeast count [1]: <10 cfu/mL
Yeast + Mold count [1, 8]: 4.1 × 10^5 cfu/mL
White Yeast count (White Yeast; [9]): <10 cfu/mL
White Yeast count (White Yeast; [10]): <10 cfu/mL
White Yeast count (White Yeast; [11]): 60 cfu/mL
Coliform count [2, 7]: 10 cfu/mL
Coliform count [2, 9]: <10 cfu/mL
Coliforms count [2, 12]: <10 cfu/mL
Coliform count [3, 13]: ~3.0 × 10^6 (est) cfu/mL
Coliform count ([3]; Table 19): 1.6 × 10^4 cfu/mL
Pink Yeast count (Pink Yeast; [9]): <10 cfu/mL
Pink Yeast count (Pink Yeast; [10]): <10 cfu/mL
Pink Yeast count (Pink Yeast; [11]): <10 cfu/mL
Yeast Cocktail count [4, 7]: <10 cfu/mL
Yeast Cocktail count [4, 8]: 6.0 × 10^3 cfu/mL
“Lactics” count [5]: 2.0 × 10^3 cfu/mL
Black Mold count (black mold): <10 cfu/mL

CCCCCCCC(=O)O [250 ppm octanoic acid, octanoic acid]
Yeast + Mold count [1, 7]: <10 cfu/mL
Green Mold + Yeast count [1]: <10 cfu/mL
Yeast + Mold count [1, 8]: 6.1 × 10^4 cfu/mL
White Yeast count (White Yeast; [9]): <10 cfu/mL
White Yeast count (White Yeast; [10]): <10 cfu/mL
White Yeast count (White Yeast; [11]): <10 cfu/mL
Coliform count [2, 7]: <10 cfu/mL
Coliform count [2, 9]: <10 cfu/mL
Coliforms count [2, 12]: <10 cfu/mL
Coliform count [3, 13]: 1.7 × 10^6 cfu/mL
Coliform count ([3]; Table 19): 3.8 × 10^3 cfu/mL
Pink Yeast count (Pink Yeast; [9]): <10 cfu/mL
Pink Yeast count (Pink Yeast; [10]): <10 cfu/mL
Pink Yeast count (Pink Yeast; [11]): <10 cfu/mL
Yeast Cocktail count [4, 7]: <10 cfu/mL
Yeast Cocktail count [4, 8]: 200 cfu/mL
“Lactics” count [5]: <10 cfu/mL
Black Mold count (black mold): <10 cfu/mL

CCCCCCCC(=O)O [500 ppm octanoic acid, octanoic acid]
Yeast + Mold count [1, 7]: <10 cfu/mL
Green Mold + Yeast count [1]: <10 cfu/mL
Yeast + Mold count [1, 8]: 5.6 × 10^3 cfu/mL
White Yeast count (White Yeast; [9]): <10 cfu/mL
White Yeast count (White Yeast; [10]): <10 cfu/mL
White Yeast count (White Yeast; [11]): <10 cfu/mL
Coliform count [2, 7]: <10 cfu/mL
Coliform count [2, 9]: <10 cfu/mL
Coliforms count [2, 12]: <10 cfu/mL
Coliform count [3, 13]: 3.5 × 10^4 cfu/mL
Coliform count ([3]; Table 19): 3.8 × 10^3 cfu/mL
Pink Yeast count (Pink Yeast; [9]): <10 cfu/mL
Pink Yeast count (Pink Yeast; [10]): <10 cfu/mL
Pink Yeast count (Pink Yeast; [11]): 20 cfu/mL
Yeast Cocktail count [4, 7]: <10 cfu/mL
Yeast Cocktail count [4, 8]: <10 cfu/mL
“Lactics” count [5]: <1 cfu/mL
Black Mold count (black mold): <10 cfu/mL

CCCCCCCC(=O)O [62.5 ppm octanoic acid, octanoic acid]
Green Mold + Yeast count [1]: 1.0 × 10^4 cfu/mL
White Yeast count (White Yeast; [10]): 90 cfu/mL
Coliforms count [2, 12]: 3.8 × 10^4 cfu/mL
Pink Yeast count (Pink Yeast; [10]): <10 cfu/mL
“Lactics” count [5]: 1.5 × 10^5 cfu/mL
Black Mold count (black mold): <10 cfu/mL

sodium linear alkylbenzene sulfonate
Total plate count [6]: <10 cfu/mL
